{
  "source": "the SangsterLogP compilation",
  "data": [
    {"assay": "not given", "values": [
      {"smiles": "CC(C)n1nnc(Oc2ccc(NC(=O)N(C)C)cc2)n1", "logP": 1.45},
      {"smiles": "CN(C)C(=O)Nc1ccc(Oc2nnnn2C(C)(C)C)c(Cl)c1", "logP": 2.25},
      {"smiles": "CN(C)C(=O)Nc1ccc(Oc2nnnn2C(C)(C)C)cc1", "logP": 1.65},
      {"smiles": "C=CCn1nnnc1Oc1ccc(NC(=O)N(C)C)cc1", "logP": 1},
      {"smiles": "C=CCn1nnc(Oc2ccc(NC(=O)N(C)C)cc2)n1", "logP": 1.65},
      {"smiles": "CCn1nnc(Oc2ccc(NC(=O)N(C)C)cc2Cl)n1", "logP": 1.7},
      {"smiles": "CN(C)C(=O)Nc1ccc(Oc2nnn(Cc3ccccc3)n2)cc1", "logP": 2.25},
      {"smiles": "CCCCCCCCn1nnc(Oc2ccc(NC(=O)N(C)C)cc2)n1", "logP": 4.4},
      {"smiles": "C#CCn1nnnc1Oc1ccc(NC(=O)N(C)C)cc1", "logP": 1},
      {"smiles": "CN(C)C(=O)Nc1ccc(Oc2nnnn2Cc2ccccc2)cc1", "logP": 1.7},
      {"smiles": "C#CCn1nnc(Oc2ccc(NC(=O)N(C)C)cc2)n1", "logP": 1.65}
    ]},
    {"assay": "method code SF-AS, from DOI: 10.1021/jf00085a044", "values": [
      {"smiles": "CN(C)C(=O)Nc1ccc(Oc2nnn(C)n2)cc1", "logP": 0.63},
      {"smiles": "CN(C)C(=O)Nc1ccc(Oc2nnn(CCC#N)n2)cc1", "logP": 0.28},
      {"smiles": "CCn1nnnc1Oc1ccc(NC(=O)N(C)C)cc1Cl", "logP": 1.5},
      {"smiles": "CCOC(=O)Cn1nnnc1Oc1ccc(NC(=O)N(C)C)cc1", "logP": 0.7},
      {"smiles": "CN(C)C(=O)Nc1ccc(Oc2nnnn2C2CCCCC2)cc1", "logP": 2.18},
      {"smiles": "CN(C)C(=O)Nc1ccc(Oc2nnn(C3CCCCC3)n2)cc1", "logP": 2.67},
      {"smiles": "CCCCCCCCn1nnnc1Oc1ccc(NC(=O)N(C)C)cc1", "logP": 3.96},
      {"smiles": "CN(C)C(=O)Nc1ccc(Oc2nnn(C(C)(C)C)n2)cc1", "logP": 2.08},
      {"smiles": "CCn1nnc(Oc2ccc(NC(=O)N(C)C)cc2)n1", "logP": 1.1}
    ]}
  ]
}
